From PubChem BioAssay (NCI) come the findings set out here.

Test systems include MCF7 breast; UO-31 renal; SF-295 CNS; EKVX NSCLC; T-47D breast; OVCAR-5 ovarian; CCRF-CEM leukemia; ACHN renal; K-562 leukemia; UACC-257 melanoma.
Common to all, as to test: NCI tumour cell line growth inhibition, 48 h

Structures are written as SMILES.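 Cells were grown in 96-well plates and exposed to each compound for 48 hours at five concentrations; endpoints were interpolated linearly between bracketing concentrations, or set to the highest concentration if not reached. At the GI50, growth is halved. TGI is the concentration that stops growth completely.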 A value given as a limit tells only on which side of the number the result lay.

Turning to `COC(=O)C1=C(C(=O)ON)[C@@H]2C=C[C@@]1([C@@H](Cc1ccccc1)Nc1ccccc1)O2`, the GI50 was 2.34 µM in the test on MCF7 breast; 1.51 µM in the test with UO-31 renal; 15.1 µM in the test on SF-295 CNS; 1.83 µM with EKVX NSCLC; 1.61 µM in the test on T-47D breast; 15.6 µM with OVCAR-5 ovarian. The GI50 is 2.43 µM in the test on CCRF-CEM leukemia, 1.67 µM with ACHN renal, 2.46 µM with K-562 leukemia and 2.07 µM in the test with UACC-257 melanoma. For the same compound, the TGI was determined as 8.12 µM in the test with MCF7 breast; 2.84 µM in the test with UO-31 renal; 28.8 µM with SF-295 CNS; 4.16 µM with EKVX NSCLC; 4.17 µM with T-47D breast; 31 µM in the test with OVCAR-5 ovarian. Moreover, the TGI in the test with CCRF-CEM leukemia turned out to be 8.2 µM; with ACHN renal, 3.04 µM; in the test on K-562 leukemia, 8.72 µM; in the test with UACC-257 melanoma, 4.5 µM.

As for `C/C(CC(C)(C)N1CC1)=N\NC(=O)Nc1cccc2ccccc12`, the GI50 was 2.42 µM with MCF7 breast; 2.58 µM in the test with UO-31 renal; 7.01 µM in the test with SF-295 CNS; 5.84 µM in the test on EKVX NSCLC; 4.35 µM in the test with T-47D breast; 6.04 µM in the test on OVCAR-5 ovarian. Further, the GI50 in the test with CCRF-CEM leukemia was 2.37 µM; in the test on ACHN renal, 2.99 µM; in the test with K-562 leukemia, 3.56 µM; in the test on UACC-257 melanoma, 4.09 µM. Besides, the TGI with MCF7 breast was 11.2 µM; in the test with UO-31 renal, 12.2 µM; with SF-295 CNS it was 35.5 µM; with EKVX NSCLC, 19.9 µM; in the test on T-47D breast it was 17.3 µM; in the test on OVCAR-5 ovarian it was 23 µM. In addition, the TGI with CCRF-CEM leukemia came out at 20.6 µM; with ACHN renal it was 11.8 µM; in the test with K-562 leukemia, 24.5 µM; with UACC-257 melanoma, 16.2 µM.

As for `Cc1ccc2[nH]c(C(=O)NN3C(=O)C(C)SC34CCC(C)CC4)c(-c3ccccc3)c2c1` (stereo unspecified), the GI50 with MCF7 breast is 17.5 µM; in the test with UO-31 renal, 14 µM; with SF-295 CNS it was 14.3 µM; in the test on EKVX NSCLC it was 19.6 µM; in the test on T-47D breast, 19.4 µM; in the test on OVCAR-5 ovarian, 17 µM. Further, the GI50 in the test on CCRF-CEM leukemia was 20.4 µM; with ACHN renal, 19.9 µM; with K-562 leukemia, 16.2 µM; in the test on UACC-257 melanoma, 19.1 µM. The TGI in the test on MCF7 breast is more than 100 µM; with UO-31 renal it was 29.4 µM; in the test with SF-295 CNS it was 32.9 µM; in the test on EKVX NSCLC, 56.1 µM; in the test with T-47D breast it was 85.7 µM; in the test on OVCAR-5 ovarian, 34.6 µM. For the same compound, the TGI stood at 79.6 µM in the test on CCRF-CEM leukemia, 44.2 µM in the test on ACHN renal, 61.9 µM in the test on K-562 leukemia and 44.5 µM with UACC-257 melanoma.

As to `COc1ccc(C2CC(c3ccc(OC)cc3O)=NN2c2ccc(S(N)(=O)=O)cc2)cc1` (stereo unspecified), the GI50 in the test on MCF7 breast was 4.11 µM; in the test on UO-31 renal it was 2.99 µM; in the test on SF-295 CNS it was 29.4 µM; in the test with EKVX NSCLC, 4.48 µM; in the test on T-47D breast, 4.42 µM; in the test on OVCAR-5 ovarian, 79.9 µM. Besides, the GI50 was 16.1 µM with CCRF-CEM leukemia, 5.86 µM in the test with ACHN renal, 5.71 µM in the test on K-562 leukemia and 15.9 µM in the test with UACC-257 melanoma. Further, the TGI in the test with MCF7 breast was more than 100 µM; in the test with UO-31 renal it was more than 100 µM; in the test on SF-295 CNS, more than 100 µM; in the test with EKVX NSCLC, more than 100 µM; in the test with T-47D breast, 85.6 µM; in the test with OVCAR-5 ovarian, more than 100 µM. Besides, the TGI in the test with CCRF-CEM leukemia, in the test on ACHN renal, in the test on K-562 leukemia and with UACC-257 melanoma was more than 100 µM each time.

For `O=C(Nc1n[nH]c2nc(-c3ccc(O)cc3)c(Br)cc12)C1CC1`, the GI50 with MCF7 breast is 1.05 µM; in the test on UO-31 renal, 3.93 µM; in the test on SF-295 CNS, 2.38 µM; in the test on EKVX NSCLC, 6.34 µM; in the test on T-47D breast, 3.81 µM; with OVCAR-5 ovarian it was 7.46 µM. In addition, the GI50 was 1.82 µM in the test with CCRF-CEM leukemia, 2.62 µM in the test with ACHN renal, 2.86 µM in the test with K-562 leukemia and 6.36 µM in the test on UACC-257 melanoma. For the same compound, the TGI in the test with MCF7 breast was determined as 10.2 µM; with UO-31 renal it was 15.3 µM; with SF-295 CNS, 14.8 µM; in the test on EKVX NSCLC, 19 µM; in the test with T-47D breast it was 14.5 µM; in the test on OVCAR-5 ovarian, 21.7 µM. The TGI in the test on CCRF-CEM leukemia was more than 25 µM; in the test with ACHN renal it was more than 21.8 µM; with K-562 leukemia, more than 25 µM; with UACC-257 melanoma it was 17 µM.

Regarding `O=C1c2cc3c(cc2-c2c1c1ccc(F)cc1c(=O)n2C[C@H](O)[C@H](O)[C@H](O)CO)OCO3`, the GI50 in the test on MCF7 breast is 0.0259 µM; in the test with SF-295 CNS it was 0.0624 µM; in the test on EKVX NSCLC, 0.357 µM; in the test on T-47D breast, 0.0419 µM; in the test with OVCAR-5 ovarian, 0.253 µM; in the test with CCRF-CEM leukemia it was 0.0479 µM. Further, in the test with K-562 leukemia, the GI50 is 0.136 µM. Moreover, the TGI in the test with MCF7 breast came out at 0.215 µM; in the test on SF-295 CNS, 0.513 µM; in the test on EKVX NSCLC, 4.63 µM; in the test on T-47D breast, 0.391 µM; in the test on OVCAR-5 ovarian, 0.866 µM; in the test on CCRF-CEM leukemia, 31.3 µM. The compound also displayed a TGI in the test with K-562 leukemia of more than 100 µM.

In the case of `NNc1nc2ccccc2o1`, the TGI in the test with MCF7 breast, in the test on UO-31 renal, with EKVX NSCLC, with T-47D breast, with OVCAR-5 ovarian and in the test with CCRF-CEM leukemia was more than 100 µM in each case. The TGI with ACHN renal, with K-562 leukemia and with UACC-257 melanoma was more than 100 µM throughout.

Consider `O=C(CCCC(=O)N/N=C/c1cc(Cl)ccc1O)N/N=C\c1cc(Cl)ccc1O`, for which the GI50 is 2.54 µM with MCF7 breast; 1.24 µM with UO-31 renal; 3.74 µM in the test on SF-295 CNS; 3.23 µM with T-47D breast; more than 100 µM in the test on OVCAR-5 ovarian; 1.25 µM in the test on CCRF-CEM leukemia. Besides, the GI50 with ACHN renal was 1.58 µM; in the test with K-562 leukemia, 2.88 µM; in the test on UACC-257 melanoma it was 2.71 µM. Moreover, the TGI was more than 100 µM with MCF7 breast; more than 100 µM with UO-31 renal; more than 100 µM in the test on SF-295 CNS; more than 100 µM in the test on T-47D breast; more than 100 µM with OVCAR-5 ovarian; 34.3 µM with CCRF-CEM leukemia. Moreover, the TGI with ACHN renal, with K-562 leukemia and in the test with UACC-257 melanoma was more than 100 µM each time.
